From publication PMC9719863 (Molecular Metabolism, 2022)
*1 amine or outer side, *2 acyl side, *3 side chain or, on linkers, in order; H or OH if unused. Where no end group is shown, it is not given here. Side-chain parts run from the residue outwards. The star is where a group is joined. γGlu = O=C(O)[C@H](CCC(=O)[*:2])N[*:1]; Palmitoyl = CCCCCCCCCCCCCCCC(=O)*

Columns and labels:
hGIPR = target: T1, hGIPR (Homo sapiens, UniProt P48546); assay: cAMP CRE-luciferase assay in BHK cells expressing GIPR; format: cell-based; details: agonist mode; for Agonism at the hGIPR (cAMP production by peptide alone): without native ligand
T1 sequence (P48546 22-466): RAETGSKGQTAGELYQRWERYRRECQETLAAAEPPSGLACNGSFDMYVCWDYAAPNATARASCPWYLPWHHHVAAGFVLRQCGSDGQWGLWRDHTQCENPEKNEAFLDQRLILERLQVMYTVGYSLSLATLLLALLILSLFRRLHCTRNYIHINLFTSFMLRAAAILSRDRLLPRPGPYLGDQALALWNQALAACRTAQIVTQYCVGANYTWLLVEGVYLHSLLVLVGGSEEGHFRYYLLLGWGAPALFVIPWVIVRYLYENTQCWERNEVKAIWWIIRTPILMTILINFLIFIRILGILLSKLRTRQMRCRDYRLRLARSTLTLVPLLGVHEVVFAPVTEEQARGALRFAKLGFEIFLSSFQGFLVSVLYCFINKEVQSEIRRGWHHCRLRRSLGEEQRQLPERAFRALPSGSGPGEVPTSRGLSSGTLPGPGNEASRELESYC

mGIPR = target: T2, mGIPR (Mus musculus, UniProt Q0P543); assay: as above; format: cell-based; details: agonist mode, without native ligand
T2 sequence (Q0P543 19-460): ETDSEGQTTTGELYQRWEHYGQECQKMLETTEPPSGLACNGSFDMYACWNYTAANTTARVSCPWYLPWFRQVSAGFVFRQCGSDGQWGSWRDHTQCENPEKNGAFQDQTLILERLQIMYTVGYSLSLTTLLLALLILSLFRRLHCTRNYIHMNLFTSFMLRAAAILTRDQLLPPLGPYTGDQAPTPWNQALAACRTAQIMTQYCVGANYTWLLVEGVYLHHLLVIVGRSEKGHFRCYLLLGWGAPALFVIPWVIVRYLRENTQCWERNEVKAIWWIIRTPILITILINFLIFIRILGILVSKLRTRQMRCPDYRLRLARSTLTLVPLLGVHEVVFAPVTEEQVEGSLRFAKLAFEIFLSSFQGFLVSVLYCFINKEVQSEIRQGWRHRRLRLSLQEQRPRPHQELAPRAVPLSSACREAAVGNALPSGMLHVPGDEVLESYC

[1] = target: T3, human GIP receptor (human) (UniProt P48546)
T3 sequence: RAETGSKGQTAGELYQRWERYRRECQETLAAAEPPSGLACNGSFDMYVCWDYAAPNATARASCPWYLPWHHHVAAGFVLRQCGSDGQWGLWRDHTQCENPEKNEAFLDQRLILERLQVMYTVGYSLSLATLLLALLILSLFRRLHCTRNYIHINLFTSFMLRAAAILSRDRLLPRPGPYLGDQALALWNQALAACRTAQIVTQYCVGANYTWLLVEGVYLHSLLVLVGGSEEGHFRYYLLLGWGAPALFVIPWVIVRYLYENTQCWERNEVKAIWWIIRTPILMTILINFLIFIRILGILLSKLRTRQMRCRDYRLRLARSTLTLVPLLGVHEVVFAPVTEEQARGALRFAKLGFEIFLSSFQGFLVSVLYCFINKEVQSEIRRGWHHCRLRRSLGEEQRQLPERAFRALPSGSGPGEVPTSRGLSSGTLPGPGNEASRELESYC

[2] = target: T4, mouse GIP receptor (mouse) (UniProt Q0P543)
T4 sequence: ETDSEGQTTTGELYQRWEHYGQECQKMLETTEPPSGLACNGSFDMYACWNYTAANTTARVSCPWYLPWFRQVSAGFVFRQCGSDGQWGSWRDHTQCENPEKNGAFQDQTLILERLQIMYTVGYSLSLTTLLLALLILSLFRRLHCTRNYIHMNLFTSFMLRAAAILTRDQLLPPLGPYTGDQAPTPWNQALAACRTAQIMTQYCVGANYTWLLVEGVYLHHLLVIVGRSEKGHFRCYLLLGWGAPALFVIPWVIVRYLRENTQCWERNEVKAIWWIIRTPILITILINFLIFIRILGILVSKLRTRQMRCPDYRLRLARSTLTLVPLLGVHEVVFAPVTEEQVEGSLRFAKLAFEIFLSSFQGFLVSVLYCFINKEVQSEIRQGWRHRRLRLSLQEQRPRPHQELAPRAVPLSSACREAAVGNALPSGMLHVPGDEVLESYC

human GIP receptor [3] = target: T5, human GIP receptor (human, UniProt P48546 22-466); assay: cell-based or functional assay
T5 sequence: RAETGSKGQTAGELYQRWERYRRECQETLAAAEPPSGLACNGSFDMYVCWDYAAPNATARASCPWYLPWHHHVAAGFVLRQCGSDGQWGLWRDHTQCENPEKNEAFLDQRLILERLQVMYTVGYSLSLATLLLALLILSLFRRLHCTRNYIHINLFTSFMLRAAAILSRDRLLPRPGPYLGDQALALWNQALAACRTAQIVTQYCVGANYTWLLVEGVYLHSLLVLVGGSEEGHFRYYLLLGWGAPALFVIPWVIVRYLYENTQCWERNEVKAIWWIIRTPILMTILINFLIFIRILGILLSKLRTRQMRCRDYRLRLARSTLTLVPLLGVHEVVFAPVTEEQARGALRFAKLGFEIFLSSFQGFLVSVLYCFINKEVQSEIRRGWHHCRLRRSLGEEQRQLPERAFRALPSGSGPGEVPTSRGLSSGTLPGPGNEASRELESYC

mouse GIP receptor [4] = target: T6, mouse GIP receptor (mouse, UniProt Q0P543 19-460); assay: cell-based or functional assay
T6 sequence: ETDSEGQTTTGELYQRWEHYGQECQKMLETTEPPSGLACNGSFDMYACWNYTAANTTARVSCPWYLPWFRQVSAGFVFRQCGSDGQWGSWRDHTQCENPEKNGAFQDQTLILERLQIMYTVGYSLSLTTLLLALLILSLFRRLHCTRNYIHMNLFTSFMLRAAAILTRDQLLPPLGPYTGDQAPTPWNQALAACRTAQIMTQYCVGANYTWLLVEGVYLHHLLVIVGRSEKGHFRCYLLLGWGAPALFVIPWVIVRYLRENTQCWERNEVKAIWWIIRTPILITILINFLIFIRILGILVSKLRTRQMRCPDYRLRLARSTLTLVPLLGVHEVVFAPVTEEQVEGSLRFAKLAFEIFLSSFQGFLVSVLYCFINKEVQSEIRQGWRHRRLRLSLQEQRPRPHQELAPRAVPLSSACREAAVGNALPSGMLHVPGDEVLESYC

human GIP receptor [5] = target: T5, human GIP receptor; assay: radioligand binding
mouse GIP receptor [6] = target: T6, mouse GIP receptor; assay: radioligand binding

Molecule: TFISDYSIALDKIRQQEFVNWLLAQKG [Peptide 3, [L14, R18, E21] hGIP(5–31)]
- Agonism at the hGIPR (cAMP production by peptide alone) (hGIPR): partial agonism
- Agonism at the mGIPR (cAMP production by peptide alone) (mGIPR): no significant agonism

Molecule: FISDYSIALDKIRQQEFVNWLLAQKG [Peptide 4, [L14, R18, E21] hGIP(6–31)]
- Agonism at the hGIPR (cAMP production by peptide alone) (hGIPR): partial agonism
- Agonism at the mGIPR (cAMP production by peptide alone) (mGIPR): no significant agonism

Molecule: CCCCCCCCCCCCCCCC(=O)N[C@@H](CCC(=O)NCCCC[C@H](NC(=O)[C@H](Cc1ccc(O)cc1)NC(=O)[C@H](CC(=O)O)NC(=O)[C@H](CO)NC(=O)[C@@H](NC(=O)[C@H](Cc1ccccc1)NC(=O)[C@@H](NC(=O)CNC(=O)[C@@H](N)CCC(=O)O)[C@@H](C)O)[C@@H](C)CC)C(=O)N[C@H](C(=O)N[C@@H](C)C(=O)N[C@@H](CC(C)C)C(=O)N[C@@H](CC(=O)O)C(=O)N[C@@H](CCCCN)C(=O)N[C@H](C(=O)N[C@@H](CCCNC(=N)N)C(=O)N[C@@H](CCC(N)=O)C(=O)N[C@@H](CCC(N)=O)C(=O)N[C@@H](CCC(=O)O)C(=O)N[C@@H](Cc1ccccc1)C(=O)N[C@H](C(=O)N[C@@H](CC(N)=O)C(=O)N[C@@H](Cc1c[nH]c2ccccc12)C(=O)N[C@@H](CC(C)C)C(=O)N[C@@H](CC(C)C)C(=O)N[C@@H](C)C(=O)N[C@@H](CCC(N)=O)C(=O)N[C@@H](CCCCN)C(N)=O)C(C)C)[C@@H](C)CC)[C@@H](C)CC)C(=O)O [Peptide 6, [L14, R18, E21] hGIP(3–30)-K11 (γE-C16)]
- Agonism at the hGIPR (cAMP production by peptide alone) (hGIPR): negligible cAMP production as agonists
- Agonism at the mGIPR (cAMP production by peptide alone) (mGIPR): negligible cAMP production as agonists

Molecule: mouse GIP (from UniProt P48756 44-85) (ligand)
- EC50 of cAMP production (CRE-luciferase) in BHK cells expressing hGIPR [1]: 0.01 nM

Molecule: EGTFISDYSIALDKIRQQEFVNWLLAQK-NH2 [Peptide 2, [L14, R18, E21] hGIP(3–30)]
- Agonism at the hGIPR (cAMP production by peptide alone) (hGIPR): partial agonism
- Agonism at the mGIPR (cAMP production by peptide alone) (mGIPR): no significant agonism

Molecule: [Pla6, L14, R18, E21] hGIP(6-31) (peptide)
- maximal % inhibition of GIP-induced cAMP in BHK cells expressing hGIPR [1]: 98%
- maximal % inhibition of GIP-induced cAMP in BHK cells expressing mGIPR [2]: 99%

Molecule: CC[C@H](C)[C@H](NC(=O)[C@H](CO)NC(=O)[C@H](Cc1ccc(O)cc1)NC(=O)[C@H](CC(=O)O)NC(=O)[C@H](CO)NC(=O)[C@@H](NC(=O)[C@H](Cc1ccccc1)NC(=O)[C@@H](NC(=O)CNC(=O)[C@H](CCC(=O)O)NC(=O)[C@H](C)NC(=O)[C@@H](N)Cc1ccc(O)cc1)[C@@H](C)O)[C@@H](C)CC)C(=O)N[C@@H](C)C(=O)N[C@@H](CCSC)C(=O)N[C@@H](CC(=O)O)C(=O)N[C@@H](CCCCN)C(=O)N[C@H](C(=O)N[C@@H](CCCNC(=N)N)C(=O)N[C@@H](CCC(N)=O)C(=O)N[C@@H](CCC(N)=O)C(=O)N[C@@H](CC(=O)O)C(=O)N[C@@H](Cc1ccccc1)C(=O)N[C@H](C(=O)N[C@@H](CC(N)=O)C(=O)N[C@@H](Cc1c[nH]c2ccccc12)C(=O)N[C@@H](CC(C)C)C(=O)N[C@@H](CC(C)C)C(=O)N[C@@H](C)C(=O)N[C@@H](CCC(N)=O)C(=O)N[C@@H](CCCNC(=N)N)C(=O)NCC(=O)N[C@@H](CCCCN)C(=O)N[C@@H](CCCCN)C(=O)N[C@@H](CO)C(=O)N[C@@H](CC(=O)O)C(=O)N[C@@H](Cc1c[nH]c2ccccc12)C(=O)N[C@@H](CCCCN)C(=O)N[C@@H](Cc1c[nH]cn1)C(=O)N[C@@H](CC(N)=O)C(=O)N[C@H](C(=O)N[C@H](C(=O)N[C@@H](CCC(N)=O)C(=O)O)[C@@H](C)O)[C@@H](C)CC)C(C)C)[C@@H](C)CC [mGIP, reference compound]
- EC50 (hGIPR; cAMP EC50, hGIPR, native ligand, Table 1): 0.01 nM

Molecule: [Pla6, L14, R18, E21] hGIP(6-31)-K11 (γE-C16) (peptide)
- maximal % inhibition of GIP-induced cAMP in BHK cells expressing hGIPR [1]: 100%
- maximal % inhibition of GIP-induced cAMP in BHK cells expressing mGIPR [2]: 99%

B1: [L14, R18, E21] hGIP(3-30)-K11 (γE-C16) (peptide)
peptide: EGTFISDYK([γGlu-Palmitoyl])IALDKIRQQEFVNWLLAQK-NH2
modifications: N-terminus assumed
SMILES: CCCCCCCCCCCCCCCC(=O)N[C@@H](CCC(=O)NCCCC[C@H](NC(=O)[C@H](Cc1ccc(O)cc1)NC(=O)[C@H](CC(=O)O)NC(=O)[C@H](CO)NC(=O)[C@@H](NC(=O)[C@H](Cc1ccccc1)NC(=O)[C@@H](NC(=O)CNC(=O)[C@@H](N)CCC(=O)O)[C@@H](C)O)[C@@H](C)CC)C(=O)N[C@H](C(=O)N[C@@H](C)C(=O)N[C@@H](CC(C)C)C(=O)N[C@@H](CC(=O)O)C(=O)N[C@@H](CCCCN)C(=O)N[C@H](C(=O)N[C@@H](CCCNC(=N)N)C(=O)N[C@@H](CCC(N)=O)C(=O)N[C@@H](CCC(N)=O)C(=O)N[C@@H](CCC(=O)O)C(=O)N[C@@H](Cc1ccccc1)C(=O)N[C@H](C(=O)N[C@@H](CC(N)=O)C(=O)N[C@@H](Cc1c[nH]c2ccccc12)C(=O)N[C@@H](CC(C)C)C(=O)N[C@@H](CC(C)C)C(=O)N[C@@H](C)C(=O)N[C@@H](CCC(N)=O)C(=O)N[C@@H](CCCCN)C(N)=O)C(C)C)[C@@H](C)CC)[C@@H](C)CC)C(=O)O
- maximal % inhibition of GIP-induced cAMP in BHK cells expressing hGIPR (human GIP receptor [3]): 100%
- maximal % inhibition of GIP-induced cAMP in BHK cells expressing mGIPR (mouse GIP receptor [4]): 97%
- IC50 (human GIP receptor [5]): 0.36 nM
- IC50 (mouse GIP receptor [6]): 2.1 nM
